# Assay results: article PMC6437697 (Journal of Medicinal Chemistry, 2019)
# Assays:
# Assay in all cases: KINOMEscan
# Assay type in all cases: binding
# Settings in all cases: read-out: % control activity remaining
# HIPK4 = molecular target: T1, HIPK4 (Homo sapiens, UniProt Q8NE63)
# T1 construct: purchased Eurofins DiscoverX KINOMEscan
# T1 sequence (Q8NE63 1-616): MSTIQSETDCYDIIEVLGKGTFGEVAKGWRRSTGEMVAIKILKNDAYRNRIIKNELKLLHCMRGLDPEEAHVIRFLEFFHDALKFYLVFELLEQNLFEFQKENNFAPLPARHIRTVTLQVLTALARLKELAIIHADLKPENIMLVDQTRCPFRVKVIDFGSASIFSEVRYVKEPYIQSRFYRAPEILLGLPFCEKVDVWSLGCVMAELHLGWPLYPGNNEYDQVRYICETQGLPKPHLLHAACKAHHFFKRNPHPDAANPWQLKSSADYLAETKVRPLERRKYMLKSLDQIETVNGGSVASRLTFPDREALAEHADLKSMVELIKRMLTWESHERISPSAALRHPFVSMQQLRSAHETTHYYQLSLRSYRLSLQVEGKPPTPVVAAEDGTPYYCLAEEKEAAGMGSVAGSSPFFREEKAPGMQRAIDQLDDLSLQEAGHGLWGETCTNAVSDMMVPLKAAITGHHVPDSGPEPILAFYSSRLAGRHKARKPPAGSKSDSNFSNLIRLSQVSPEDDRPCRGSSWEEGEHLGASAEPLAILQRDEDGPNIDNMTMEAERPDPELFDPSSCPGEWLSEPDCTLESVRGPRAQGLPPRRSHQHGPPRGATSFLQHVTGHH
# SYK = molecular target: T2, SYK (Homo sapiens, UniProt P43405)
# T2 construct: purchased Eurofins DiscoverX KINOMEscan
# ITK = molecular target: T3, ITK (Homo sapiens, UniProt Q08881)
# T3 construct: purchased Eurofins DiscoverX KINOMEscan
# T3 sequence (Q08881 1-620): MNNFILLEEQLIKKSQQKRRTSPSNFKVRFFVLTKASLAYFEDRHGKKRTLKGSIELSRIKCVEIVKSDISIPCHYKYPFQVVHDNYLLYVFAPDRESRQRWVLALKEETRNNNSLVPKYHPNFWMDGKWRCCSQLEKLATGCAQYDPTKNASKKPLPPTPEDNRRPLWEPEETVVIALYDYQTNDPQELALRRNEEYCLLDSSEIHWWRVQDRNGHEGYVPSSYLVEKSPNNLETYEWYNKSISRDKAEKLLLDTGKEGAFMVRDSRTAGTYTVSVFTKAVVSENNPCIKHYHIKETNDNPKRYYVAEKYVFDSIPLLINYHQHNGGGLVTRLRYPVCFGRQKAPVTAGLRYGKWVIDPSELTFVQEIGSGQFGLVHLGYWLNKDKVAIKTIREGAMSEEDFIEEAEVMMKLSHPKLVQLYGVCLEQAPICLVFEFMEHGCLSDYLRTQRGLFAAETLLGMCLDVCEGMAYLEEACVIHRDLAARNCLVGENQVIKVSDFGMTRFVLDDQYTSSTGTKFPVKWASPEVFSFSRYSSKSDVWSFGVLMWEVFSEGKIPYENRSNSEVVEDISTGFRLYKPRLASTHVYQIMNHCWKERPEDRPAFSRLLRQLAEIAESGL
# CAMK2G = molecular target: T4, CAMK2G (Homo sapiens, UniProt Q13555)
# T4 construct: purchased Eurofins DiscoverX KINOMEscan
# SNARK = molecular target: T5, SNARK (Homo sapiens, UniProt Q9H093)
# T5 construct: purchased Eurofins DiscoverX KINOMEscan
# T5 sequence (Q9H093 1-628): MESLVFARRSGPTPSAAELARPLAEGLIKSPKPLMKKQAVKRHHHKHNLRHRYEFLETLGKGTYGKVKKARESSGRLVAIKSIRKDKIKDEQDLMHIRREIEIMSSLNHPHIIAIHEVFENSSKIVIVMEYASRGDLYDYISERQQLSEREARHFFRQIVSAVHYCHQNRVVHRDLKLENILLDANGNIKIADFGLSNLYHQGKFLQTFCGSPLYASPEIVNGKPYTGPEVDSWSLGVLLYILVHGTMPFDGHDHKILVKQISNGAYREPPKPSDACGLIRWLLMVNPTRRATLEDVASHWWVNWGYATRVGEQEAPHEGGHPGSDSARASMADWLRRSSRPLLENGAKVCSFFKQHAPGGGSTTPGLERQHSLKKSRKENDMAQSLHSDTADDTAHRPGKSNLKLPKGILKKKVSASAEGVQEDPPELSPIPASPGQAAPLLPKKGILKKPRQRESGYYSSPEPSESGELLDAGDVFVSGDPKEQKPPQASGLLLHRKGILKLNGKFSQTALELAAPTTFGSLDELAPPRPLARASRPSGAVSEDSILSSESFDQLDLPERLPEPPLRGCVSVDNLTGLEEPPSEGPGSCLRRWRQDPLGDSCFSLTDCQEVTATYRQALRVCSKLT
# [1] = molecular target: T6, RSK3(Kin.Dom.1-N-terminal) (Homo sapiens, UniProt Q15349)
# T6 construct: RSK3(Kin.Dom.1-N-terminal); purchased Eurofins DiscoverX KINOMEscan
# TNIK = molecular target: T7, TNIK (Homo sapiens, UniProt Q9UKE5)
# T7 construct: purchased Eurofins DiscoverX KINOMEscan
# CDK3 = molecular target: T8, CDK3 (Homo sapiens, UniProt Q00526)
# T8 construct: purchased Eurofins DiscoverX KINOMEscan
# CSNK1G3 = molecular target: T9, CSNK1G3 (Homo sapiens, UniProt Q9Y6M4)
# T9 construct: purchased Eurofins DiscoverX KINOMEscan
# PRKR = molecular target: T10, PRKR (Homo sapiens, UniProt P19525)
# T10 construct: purchased Eurofins DiscoverX KINOMEscan
# ERK8 = molecular target: T11, ERK8 (Homo sapiens, UniProt Q8TD08)
# T11 construct: purchased Eurofins DiscoverX KINOMEscan
# T11 sequence (Q8TD08 1-544): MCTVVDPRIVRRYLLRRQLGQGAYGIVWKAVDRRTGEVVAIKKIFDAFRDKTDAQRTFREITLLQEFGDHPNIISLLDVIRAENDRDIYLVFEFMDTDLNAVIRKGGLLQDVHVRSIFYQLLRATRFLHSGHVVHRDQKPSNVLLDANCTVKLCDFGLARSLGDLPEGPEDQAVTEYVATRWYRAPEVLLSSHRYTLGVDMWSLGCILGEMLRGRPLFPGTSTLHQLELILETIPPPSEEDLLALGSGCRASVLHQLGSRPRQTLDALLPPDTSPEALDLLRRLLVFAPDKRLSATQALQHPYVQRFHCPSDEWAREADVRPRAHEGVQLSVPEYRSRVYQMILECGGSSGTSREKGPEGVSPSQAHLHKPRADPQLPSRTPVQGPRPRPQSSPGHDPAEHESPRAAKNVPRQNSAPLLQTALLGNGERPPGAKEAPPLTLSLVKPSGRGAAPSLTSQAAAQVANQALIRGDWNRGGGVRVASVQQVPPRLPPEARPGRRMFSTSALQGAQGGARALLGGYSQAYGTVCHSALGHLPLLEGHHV
# RIPK2 = molecular target: T12, RIPK2 (Homo sapiens, UniProt O43353)
# T12 construct: purchased Eurofins DiscoverX KINOMEscan
# T12 sequence (O43353 whole entry): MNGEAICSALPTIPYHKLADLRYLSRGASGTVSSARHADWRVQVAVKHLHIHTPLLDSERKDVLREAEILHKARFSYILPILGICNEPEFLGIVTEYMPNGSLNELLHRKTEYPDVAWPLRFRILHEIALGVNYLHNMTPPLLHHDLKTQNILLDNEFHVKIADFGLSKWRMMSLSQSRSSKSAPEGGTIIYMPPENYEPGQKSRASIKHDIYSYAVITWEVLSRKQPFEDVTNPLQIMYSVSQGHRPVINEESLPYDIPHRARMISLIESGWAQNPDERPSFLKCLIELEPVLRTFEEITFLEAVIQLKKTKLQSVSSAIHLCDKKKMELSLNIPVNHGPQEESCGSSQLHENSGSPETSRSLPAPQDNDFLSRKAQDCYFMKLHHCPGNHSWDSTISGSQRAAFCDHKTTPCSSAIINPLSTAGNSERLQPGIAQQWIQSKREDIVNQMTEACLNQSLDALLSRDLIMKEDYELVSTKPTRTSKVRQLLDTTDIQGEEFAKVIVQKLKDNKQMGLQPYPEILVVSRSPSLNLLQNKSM
# T10 sequence (P19525 whole entry): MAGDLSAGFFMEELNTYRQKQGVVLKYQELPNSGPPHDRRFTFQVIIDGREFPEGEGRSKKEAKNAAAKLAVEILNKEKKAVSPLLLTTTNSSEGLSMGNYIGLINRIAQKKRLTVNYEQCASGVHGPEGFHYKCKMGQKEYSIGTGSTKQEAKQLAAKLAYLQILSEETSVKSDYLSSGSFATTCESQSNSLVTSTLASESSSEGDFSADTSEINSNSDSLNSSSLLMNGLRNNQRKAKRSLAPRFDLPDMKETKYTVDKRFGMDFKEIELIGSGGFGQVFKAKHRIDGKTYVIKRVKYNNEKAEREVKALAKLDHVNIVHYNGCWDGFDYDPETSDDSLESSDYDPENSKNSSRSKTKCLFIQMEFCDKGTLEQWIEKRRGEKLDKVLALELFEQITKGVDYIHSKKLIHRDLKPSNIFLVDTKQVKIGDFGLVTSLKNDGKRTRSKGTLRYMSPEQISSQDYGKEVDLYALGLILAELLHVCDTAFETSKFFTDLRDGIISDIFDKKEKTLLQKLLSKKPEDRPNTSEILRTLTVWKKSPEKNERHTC
# T9 sequence (Q9Y6M4 whole entry): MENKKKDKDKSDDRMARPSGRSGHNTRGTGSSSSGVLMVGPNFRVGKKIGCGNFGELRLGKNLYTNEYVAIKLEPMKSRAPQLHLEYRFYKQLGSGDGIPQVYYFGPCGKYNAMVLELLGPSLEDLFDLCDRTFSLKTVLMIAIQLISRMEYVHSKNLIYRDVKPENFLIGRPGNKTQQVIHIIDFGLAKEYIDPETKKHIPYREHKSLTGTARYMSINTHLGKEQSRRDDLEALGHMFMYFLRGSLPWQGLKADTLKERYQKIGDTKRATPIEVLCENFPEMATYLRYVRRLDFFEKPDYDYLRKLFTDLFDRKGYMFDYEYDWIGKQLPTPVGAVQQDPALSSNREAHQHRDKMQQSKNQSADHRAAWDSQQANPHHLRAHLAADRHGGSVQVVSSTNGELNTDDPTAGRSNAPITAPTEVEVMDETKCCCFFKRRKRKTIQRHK
# T8 sequence (Q00526 whole entry): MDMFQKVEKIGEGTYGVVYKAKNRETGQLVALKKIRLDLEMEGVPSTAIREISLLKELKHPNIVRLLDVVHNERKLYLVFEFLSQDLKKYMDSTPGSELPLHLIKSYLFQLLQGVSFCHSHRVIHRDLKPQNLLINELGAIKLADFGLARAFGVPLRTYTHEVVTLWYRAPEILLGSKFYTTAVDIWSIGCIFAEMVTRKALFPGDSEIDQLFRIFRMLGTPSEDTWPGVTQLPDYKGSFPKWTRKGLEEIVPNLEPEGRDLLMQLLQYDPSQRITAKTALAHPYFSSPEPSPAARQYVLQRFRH
# T7 sequence (Q9UKE5 whole entry): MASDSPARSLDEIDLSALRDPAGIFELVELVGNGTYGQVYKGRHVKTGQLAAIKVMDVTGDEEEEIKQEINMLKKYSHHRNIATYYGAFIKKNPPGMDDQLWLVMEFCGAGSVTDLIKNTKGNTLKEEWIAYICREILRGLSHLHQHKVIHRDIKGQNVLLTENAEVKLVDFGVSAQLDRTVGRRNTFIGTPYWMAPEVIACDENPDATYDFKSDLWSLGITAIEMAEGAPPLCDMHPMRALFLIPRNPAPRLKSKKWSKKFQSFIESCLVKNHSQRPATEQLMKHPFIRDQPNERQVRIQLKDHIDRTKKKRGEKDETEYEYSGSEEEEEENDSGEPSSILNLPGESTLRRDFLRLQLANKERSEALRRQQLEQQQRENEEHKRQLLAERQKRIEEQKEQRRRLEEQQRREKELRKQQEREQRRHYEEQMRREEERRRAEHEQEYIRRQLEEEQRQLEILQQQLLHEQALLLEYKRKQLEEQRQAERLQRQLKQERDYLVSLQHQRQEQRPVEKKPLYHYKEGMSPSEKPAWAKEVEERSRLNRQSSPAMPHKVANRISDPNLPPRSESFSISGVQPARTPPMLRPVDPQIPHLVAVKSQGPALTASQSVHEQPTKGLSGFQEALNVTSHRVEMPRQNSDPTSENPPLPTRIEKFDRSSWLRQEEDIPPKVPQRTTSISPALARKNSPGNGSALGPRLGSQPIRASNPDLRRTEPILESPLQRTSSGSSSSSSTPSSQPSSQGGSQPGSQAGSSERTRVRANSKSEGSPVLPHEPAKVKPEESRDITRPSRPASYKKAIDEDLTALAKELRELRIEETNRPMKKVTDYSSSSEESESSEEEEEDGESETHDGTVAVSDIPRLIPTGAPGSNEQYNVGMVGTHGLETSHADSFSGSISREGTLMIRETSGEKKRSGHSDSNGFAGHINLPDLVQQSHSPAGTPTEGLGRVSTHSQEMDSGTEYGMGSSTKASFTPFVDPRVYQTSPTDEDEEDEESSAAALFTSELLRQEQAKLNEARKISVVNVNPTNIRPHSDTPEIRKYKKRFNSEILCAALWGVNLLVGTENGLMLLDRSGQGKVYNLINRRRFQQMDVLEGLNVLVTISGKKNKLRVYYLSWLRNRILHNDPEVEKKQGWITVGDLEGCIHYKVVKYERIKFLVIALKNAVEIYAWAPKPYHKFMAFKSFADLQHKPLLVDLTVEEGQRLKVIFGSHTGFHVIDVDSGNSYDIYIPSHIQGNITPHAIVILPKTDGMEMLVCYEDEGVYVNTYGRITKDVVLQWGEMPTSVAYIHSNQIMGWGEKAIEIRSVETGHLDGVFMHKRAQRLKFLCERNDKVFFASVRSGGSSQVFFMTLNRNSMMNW
# T6 sequence (Q15349 59-318 limits assumed): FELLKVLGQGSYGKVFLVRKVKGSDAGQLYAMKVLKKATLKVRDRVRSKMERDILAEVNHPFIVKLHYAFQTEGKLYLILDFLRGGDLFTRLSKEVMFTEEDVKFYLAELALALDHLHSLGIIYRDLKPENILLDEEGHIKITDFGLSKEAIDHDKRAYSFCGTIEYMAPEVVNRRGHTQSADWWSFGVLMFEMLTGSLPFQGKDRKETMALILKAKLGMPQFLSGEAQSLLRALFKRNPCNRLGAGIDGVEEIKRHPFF
# T4 sequence (Q13555 whole entry): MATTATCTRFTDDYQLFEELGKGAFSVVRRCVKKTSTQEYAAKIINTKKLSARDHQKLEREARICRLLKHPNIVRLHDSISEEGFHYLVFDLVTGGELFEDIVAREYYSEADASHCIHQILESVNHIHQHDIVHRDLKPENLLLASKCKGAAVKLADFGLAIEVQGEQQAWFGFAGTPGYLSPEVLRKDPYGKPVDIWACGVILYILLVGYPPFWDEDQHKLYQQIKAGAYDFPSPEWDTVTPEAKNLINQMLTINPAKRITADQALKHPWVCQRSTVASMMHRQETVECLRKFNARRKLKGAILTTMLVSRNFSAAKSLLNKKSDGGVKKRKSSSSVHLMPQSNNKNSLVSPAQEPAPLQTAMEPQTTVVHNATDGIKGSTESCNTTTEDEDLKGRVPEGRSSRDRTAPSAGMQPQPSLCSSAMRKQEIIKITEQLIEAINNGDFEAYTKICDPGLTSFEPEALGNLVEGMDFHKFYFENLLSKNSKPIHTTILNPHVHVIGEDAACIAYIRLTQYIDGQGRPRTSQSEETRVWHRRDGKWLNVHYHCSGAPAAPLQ
SMILES,remaining binding at 1 µM (HIPK4) [%],remaining binding at 1 µM (SYK) [%],remaining binding at 1 µM (ITK) [%],remaining binding at 1 µM (CAMK2G) [%],remaining binding at 1 µM (SNARK) [%],remaining binding at 1 µM [1] [%],remaining binding at 1 µM (TNIK) [%],remaining binding at 1 µM (CDK3) [%],remaining binding at 1 µM (CSNK1G3) [%],remaining binding at 1 µM (PRKR) [%],remaining binding at 1 µM (ERK8) [%],remaining binding at 1 µM (RIPK2) [%]
"Clc1cc(NCC2CC2)c2ncc(-c3ccc4[nH]ncc4c3)n2n1 [compound 2, 6-Chloro-N-(cyclopropylmethyl)-3-(1H-indazol-5-yl)imidazo[1,2-b]pyridazin-8-amine]",8.6,97,92,100,99,82,80,95,100,97,87,88
O=C(CN1CCOCC1)N[C@H]1CC[C@H](Nc2cc(Cl)nn3c(-c4ccc5[nH]ncc5c4)cnc23)CC1 [compound 26],5.1,100,84,52,73,52,47,90,100,97,81,61
"CN1CCC(CNc2cc(Cl)nn3c(-c4cc5nc(Nc6ccccc6)[nH]c5cc4F)cnc23)CC1 [compound 31, 6-Chloro-3-(6-fluoro-2-(phenylamino)-1H-benzo[d]imidazol-5-yl)-N-((1-methylpiperidin-4-yl)methyl)imidazo[1,2-b]pyridazin-8-amine]",71,92,91,100,88,78,97,97,100,81,100,100
